Data from US12534450B2, “Methods and compositions for targeting PD-L1” (Aligos Therapeutics, Inc., priority 2021, dated 2026).

Biological target: PD-1/PD-L1 PPI (Homo sapiens, UniProt Q9NZQ7)
Test: PDL1/PD1 Binding Assay
Conditions: PDL1-6×His 0.3 nM, PD1-Fc-Avi-Biotin 2.5 nM, Acceptor/Donor beads, Envision reader
Method: Compounds to be tested were serially diluted in DMSO, and further diluted in assay buffer (25 mM Hepes pH 7.4, 150 mM NaCl, 0.005% Tween 20, BSA 0.01%). Diluted compounds were added to the wells with final concentration of DMSO at 1%. PDL1-6×His protein was added to the wells, mixed well with compound. The plates were incubated for 30 min at room temperature. PD1-Fc-Avi-Biotin protein was added to the wells. Final concentration of PDL1 and PD1 protein is 0.3 nM and 2.5 nM, respectively. After a binding time of 30 min at room temperature, Anti-6×His Acceptor beads (final concentration 20 ug/ml) were added to the wells, and the incubation continued for 1 h. Streptavidin Donor beads (final concentration 20 ug/mL) were added at reduced light. The plates were sealed with foil and incubated in the dark for additional 1 h or overnight before reading on an Envision reader. The IC50 values were determined by fitting the curves using a four-parameter equation in Graphpad Prism 8.

Sequence of PD-1/PD-L1 PPI (Q9NZQ7 19-238 limits assumed): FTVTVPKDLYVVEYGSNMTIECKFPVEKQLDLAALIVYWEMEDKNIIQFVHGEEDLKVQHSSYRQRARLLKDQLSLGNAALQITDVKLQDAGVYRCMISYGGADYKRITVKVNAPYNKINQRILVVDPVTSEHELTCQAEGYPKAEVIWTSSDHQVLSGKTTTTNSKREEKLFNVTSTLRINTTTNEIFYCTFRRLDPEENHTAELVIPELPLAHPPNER

| SMILES | IC50 [nM] |
| --- | --- |
| COc1nc(-c2cccc(-c3cccc(NC(=O)c4cn(C)c(=O)n(C)c4=O)c3C)c2C)cc2c1[C@@H](N1CC(OC)C1)CC2 (single isomer, unassigned) [Compound A-83] | ≤ 10 |
| COc1nc(-c2cccc(-c3cccc(NC(=O)c4cn(C)c(=O)n(C)c4=O)c3C)c2C)cc2c1[C@H](N1CC(OC)C1)CC2 (single isomer, unassigned) [Compound A-84] | 10 to 100 |
| CCOC(=O)C1CN([C@H]2CCc3cc(-c4cccc(-c5cccc(NC(=O)c6cn(C)c(=O)n(C)c6=O)c5Cl)c4Cl)nc(OC)c32)C1 (single isomer, unassigned) [Compound A-85] | ≤ 10 |
| CCOC(=O)C1CN([C@@H]2CCc3cc(-c4cccc(-c5cccc(NC(=O)c6cn(C)c(=O)n(C)c6=O)c5Cl)c4Cl)nc(OC)c32)C1 (single isomer, unassigned) [Compound A-86] | 100 to 1000 |
| CCOC(=O)C1CN([C@H]2CCc3cc(-c4cccc(-c5cccc(NC(=O)c6ccnn(C)c6=O)c5Cl)c4Cl)nc(OC)c32)C1 (single isomer, unassigned) [Compound A-87] | ≤ 10 |
| CCOC(=O)C1CN([C@H]2CCc3cc(-c4cccc(-c5cccc(NC(=O)c6ccnn(C)c6=O)c5C)c4Cl)nc(OC)c32)C1 (single isomer, unassigned) [Compound A-88] | ≤ 10 |
| COc1nc(-c2cccc(-c3cccc(NC(=O)c4cn(C)c(=O)n(C)c4=O)c3C)c2C)cc2c1[C@@H](N[C@@H]1CCOC[C@H]1O)CC2 (single isomer, unassigned) [Compound A-89] | 10 to 100 |
| COc1nc(-c2cccc(-c3cccc(NC(=O)c4cn(C)c(=O)n(C)c4=O)c3C)c2C)cc2c1[C@H](N[C@@H]1CCOC[C@H]1O)CC2 (single isomer, unassigned) [Compound A-90] | ≤ 10 |
| COc1nc(-c2cccc(-c3cccc(NC(=O)c4nn(C)c(=O)n(C)c4=O)c3C)c2C)cc2c1[C@@H](N[C@@H]1CCOC[C@H]1O)CC2 (single isomer, unassigned) [Compound A-91] | ≤ 10 |
| COc1nc(-c2cccc(-c3cccc(NC(=O)c4nn(C)c(=O)n(C)c4=O)c3C)c2C)cc2c1[C@H](N[C@@H]1CCOC[C@H]1O)CC2 (single isomer, unassigned) [Compound A-92] | ≤ 10 |
| COc1nc(-c2cccc(-c3cccc(NC(=O)c4nn(C)c(=O)n(C)c4=O)c3Cl)c2Cl)cc2c1[C@@H](N[C@@H]1CCOC[C@H]1O)CC2 (single isomer, unassigned) [Compound A-93] | ≤ 10 |
| COc1nc(-c2cccc(-c3cccc(NC(=O)c4nn(C)c(=O)n(C)c4=O)c3Cl)c2Cl)cc2c1[C@H](N[C@@H]1CCOC[C@H]1O)CC2 (single isomer, unassigned) [Compound A-94] | ≤ 10 |
| COc1nc(-c2cccc(-c3cccc(NC(=O)c4nn(C)c(=O)n(C)c4=O)c3C)c2Cl)cc2c1[C@@H](N[C@@H]1CCOC[C@H]1O)CC2 (single isomer, unassigned) [Compound A-95] | ≤ 10 |
| COc1nc(-c2cccc(-c3cccc(NC(=O)c4cn(C)c(=O)n(C)c4=O)c3C)c2C)cc2c1[C@@H](N[C@@H]1COC[C@H]1O)CC2 (single isomer, unassigned) [Compound A-97] | 10 to 100 |
| COc1nc(-c2cccc(-c3cccc(NC(=O)c4cn(C)c(=O)n(C)c4=O)c3C)c2C)cc2c1[C@H](N[C@@H]1COC[C@H]1O)CC2 (single isomer, unassigned) [Compound A-98] | ≤ 10 |
| COc1nc(-c2cccc(-c3cccc(NC(=O)c4nn(C)c(=O)n(C)c4=O)c3Cl)c2Cl)cc2c1[C@@H](N[C@@H]1COC[C@H]1O)CC2 (single isomer, unassigned) [Compound A-99] | ≤ 10 |
| COc1nc(-c2cccc(-c3cccc(NC(=O)c4nn(C)c(=O)n(C)c4=O)c3Cl)c2Cl)cc2c1[C@H](N[C@@H]1COC[C@H]1O)CC2 (single isomer, unassigned) [Compound A-100] | ≤ 10 |
| COc1nc(-c2cccc(-c3cccc(NC(=O)c4nn(C)c(=O)n(C)c4=O)c3C)c2Cl)cc2c1[C@@H](N[C@@H]1COC[C@H]1O)CC2 (single isomer, unassigned) [Compound A-101] | ≤ 10 |

Tested on: PD-1/PD-L1 interaction
Test: PD-1/PD-L1 NFAT Reporter Assay (co-culture of Jurkat T cells overexpressing PD-1 and PD-L1 expressing CHO cells)
Assay type: cell-based
Conditions: Homo sapiens, Jurkat, 6 h, co-culture 6 hrs at 37° C., NFAT-mediated luciferase activity
Method: Blocking the PD-1/PD-L1 interaction will release the inhibitory signal and results in TCR signaling and NFAT-mediated luciferase activity.
CHO cells expressing surface-bound anti-CD3 antibodies and PD-L1 were first seeded overnight and treated with the compounds. Jurkat cells overexpressing PD-1 and a luciferase construct under NFAT promoter were then immediately seeded on the monolayer of CHO cells. The co-culture was then incubated for 6 hrs at 37° C. Luciferase activity was assessed by adding the ONE-Glo reagent and measuring luminescence with a plate reader. EC50 values were determined from the fit of the dose-response curves.

| SMILES | EC50 [nM] |
| --- | --- |
| COc1nc(-c2cccc(-c3cccc(NC(=O)c4cn(C)c(=O)n(C)c4=O)c3C)c2C)cc2c1[C@@H](N1CC(OC)C1)CC2 (single isomer, unassigned) [Compound A-83] | 10 to 100 |
| COc1nc(-c2cccc(-c3cccc(NC(=O)c4cn(C)c(=O)n(C)c4=O)c3C)c2C)cc2c1[C@H](N1CC(OC)C1)CC2 (single isomer, unassigned) [Compound A-84] | > 5000 |
| CCOC(=O)C1CN([C@H]2CCc3cc(-c4cccc(-c5cccc(NC(=O)c6cn(C)c(=O)n(C)c6=O)c5Cl)c4Cl)nc(OC)c32)C1 (single isomer, unassigned) [Compound A-85] | 10 to 100 |
| CCOC(=O)C1CN([C@@H]2CCc3cc(-c4cccc(-c5cccc(NC(=O)c6cn(C)c(=O)n(C)c6=O)c5Cl)c4Cl)nc(OC)c32)C1 (single isomer, unassigned) [Compound A-86] | > 5000 |
| CCOC(=O)C1CN([C@H]2CCc3cc(-c4cccc(-c5cccc(NC(=O)c6ccnn(C)c6=O)c5Cl)c4Cl)nc(OC)c32)C1 (single isomer, unassigned) [Compound A-87] | 10 to 100 |
| CCOC(=O)C1CN([C@H]2CCc3cc(-c4cccc(-c5cccc(NC(=O)c6ccnn(C)c6=O)c5C)c4Cl)nc(OC)c32)C1 (single isomer, unassigned) [Compound A-88] | 10 to 100 |
| COc1nc(-c2cccc(-c3cccc(NC(=O)c4cn(C)c(=O)n(C)c4=O)c3C)c2C)cc2c1[C@@H](N[C@@H]1CCOC[C@H]1O)CC2 (single isomer, unassigned) [Compound A-89] | 1000 to 10000 |
| COc1nc(-c2cccc(-c3cccc(NC(=O)c4cn(C)c(=O)n(C)c4=O)c3C)c2C)cc2c1[C@H](N[C@@H]1CCOC[C@H]1O)CC2 (single isomer, unassigned) [Compound A-90] | 10 to 100 |
| COc1nc(-c2cccc(-c3cccc(NC(=O)c4nn(C)c(=O)n(C)c4=O)c3C)c2C)cc2c1[C@@H](N[C@@H]1CCOC[C@H]1O)CC2 (single isomer, unassigned) [Compound A-91] | 1000 to 10000 |
| COc1nc(-c2cccc(-c3cccc(NC(=O)c4nn(C)c(=O)n(C)c4=O)c3C)c2C)cc2c1[C@H](N[C@@H]1CCOC[C@H]1O)CC2 (single isomer, unassigned) [Compound A-92] | 10 to 100 |
| COc1nc(-c2cccc(-c3cccc(NC(=O)c4nn(C)c(=O)n(C)c4=O)c3Cl)c2Cl)cc2c1[C@@H](N[C@@H]1CCOC[C@H]1O)CC2 (single isomer, unassigned) [Compound A-93] | 100 to 1000 |
| COc1nc(-c2cccc(-c3cccc(NC(=O)c4nn(C)c(=O)n(C)c4=O)c3Cl)c2Cl)cc2c1[C@H](N[C@@H]1CCOC[C@H]1O)CC2 (single isomer, unassigned) [Compound A-94] | ≤ 10 |
| COc1nc(-c2cccc(-c3cccc(NC(=O)c4nn(C)c(=O)n(C)c4=O)c3C)c2Cl)cc2c1[C@@H](N[C@@H]1CCOC[C@H]1O)CC2 (single isomer, unassigned) [Compound A-95] | 100 to 1000 |
| COc1nc(-c2cccc(-c3cccc(NC(=O)c4cn(C)c(=O)n(C)c4=O)c3C)c2C)cc2c1[C@@H](N[C@@H]1COC[C@H]1O)CC2 (single isomer, unassigned) [Compound A-97] | 1000 to 10000 |
| COc1nc(-c2cccc(-c3cccc(NC(=O)c4cn(C)c(=O)n(C)c4=O)c3C)c2C)cc2c1[C@H](N[C@@H]1COC[C@H]1O)CC2 (single isomer, unassigned) [Compound A-98] | 100 to 1000 |
| COc1nc(-c2cccc(-c3cccc(NC(=O)c4nn(C)c(=O)n(C)c4=O)c3Cl)c2Cl)cc2c1[C@@H](N[C@@H]1COC[C@H]1O)CC2 (single isomer, unassigned) [Compound A-99] | 100 to 1000 |
| COc1nc(-c2cccc(-c3cccc(NC(=O)c4nn(C)c(=O)n(C)c4=O)c3Cl)c2Cl)cc2c1[C@H](N[C@@H]1COC[C@H]1O)CC2 (single isomer, unassigned) [Compound A-100] | ≤ 10 |
| COc1nc(-c2cccc(-c3cccc(NC(=O)c4nn(C)c(=O)n(C)c4=O)c3C)c2Cl)cc2c1[C@@H](N[C@@H]1COC[C@H]1O)CC2 (single isomer, unassigned) [Compound A-101] | > 5000 |
